Key:
[1] = biological target: T1, angiotensin II (A-II) receptor (Bos taurus, UniProt P25104); test: Inhibition of binding of angiotensin II to angiotensin II receptor (radioreceptor assay, 125I-A-II, bovine adrenal cortex membrane fraction); conditions: room temperature, 1 h; for inhibition at 1 µM: 10^-6 M; for inhibition at 0.1 µM: 10^-7 M
T1 construct: membrane fraction was prepared from bovine adrenal cortex; from tissue; host or cells: bovine adrenal cortex membrane fraction
T1 sequence (P25104 1-359): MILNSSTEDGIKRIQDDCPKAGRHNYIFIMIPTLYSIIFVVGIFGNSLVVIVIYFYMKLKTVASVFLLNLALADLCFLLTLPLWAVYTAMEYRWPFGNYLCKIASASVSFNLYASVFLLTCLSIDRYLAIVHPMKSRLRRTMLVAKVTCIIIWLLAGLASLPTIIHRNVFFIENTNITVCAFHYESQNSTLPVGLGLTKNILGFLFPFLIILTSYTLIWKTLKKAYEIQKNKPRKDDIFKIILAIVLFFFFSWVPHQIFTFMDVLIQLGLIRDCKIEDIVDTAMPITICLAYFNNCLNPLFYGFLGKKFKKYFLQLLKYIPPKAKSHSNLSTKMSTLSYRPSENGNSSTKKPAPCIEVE
Description: Inhibitory Effect of Binding of Angiotensin-II to Angiotensin Receptor
An experiment of inhibition on the binding of angiotensin II (A-II) receptor was conducted by modifying the method of Douglas et al. [Endocrinology, 102, 685-696 (1978)]. An A-II receptor membrane fraction was prepared from bovine adrenal cortex.
The compound of the present invention (10^-6 M or 10^-7 M) and^125 I-angiotensin II (^125 I-A-II) (1.85 kBq/50 μl) were added to the receptor membrane fraction, and the mixture was incubated at room temperature for one hour. The receptor-bound and free ^125 I-A-II were separated through a filter (Whatman GF/B filter), and the radioactivity of ^125 I-A-II bound to the receptor was measured.

[2] = system: A-II-induced pressor action; test: Inhibitory effect on pressor action of angiotensin II in rats (p.o.); assay type: in vivo, Jcl: SD rats; conditions: Rattus norvegicus, po; 1 mg/kg p.o.; male SD rats; A-II 100 ng/kg i.v.; read-out: Pressor Response (percent inhibition of A-II-induced pressor action)
Excerpt: Inhibitory Effect of the Compound of the Present Invention on Pressor Action of Angiotensin
Jcl: SD rats (9 week old, male) were employed. On the day previous to that of the experiment, these animals were applied with cannulation into the femoral artery and vein under anesthesia with pentobarbital Na. The animals were fasted but allowed to access freely to drinking water until the experiment was started. Just on the day of conducting the experiment, the artery cannula was connected with a blood-pressure transducer, and the average blood pressure was recorded by means of polygraph. Before administration of the drug, the pressor action due to intravenous administration of angiotensin II (A-II) (100 ng/kg) as the control was measured. The drugs were orally administered, then, at each point of the measurement, A-II was administered intravenously, and the pressor action was similarly measured. By comparing the pressor action before and after administration of the drug, the percent inhibition by the drug on A-II-induced pressor action was evaluated.

inhibition at 1 µM [1] [%] | inhibition at 0.1 µM [1] [%] | Structure (SMILES) | inhibition in vivo at 1 mg/kg [2] [%]
50 | 14 | CSc1nc2c(C)sc(C(=O)O)c2n1Cc1ccc(-c2ccccc2-c2nn[nH]n2)cc1 [Working Example 15] | ≥ 70
64 | 26 | Cc1sc(C(=O)O)c2c1nc(SC(C)C)n2Cc1ccc(-c2ccccc2-c2nnn[nH]2)cc1 [Working Example 17, 2-Isopropylthio-4-methyl-1-[[2'-(1H-tetrazol-5-yl]-biphenyl-4-yl]methyl]thieno[3,4-d]imidazole-6-carboxylic acid] | ≥ 70
66 | 33 | CCCCSc1nc2c(C)sc(C(=O)O)c2n1Cc1ccc(-c2ccccc2-c2nn[nH]n2)cc1 [Working Example 18, 2-Butylthio-4-methyl-1-[[2',(1H-tetrazol-5-yl)biphenyl-4-yl]methyl]thieno[3,4-d]imidazole-6-carboxylic acid] | 30 to 50
84 | 45 | CCSc1nc2csc(C(=O)O)c2n1Cc1ccc(-c2ccccc2-c2nnn[nH]2)cc1 [Working Example 22, 2-Ethylthio-1-[[2'-(1H-tetrazol-5-yl)biphenyl-4-yl]methyl]thieno[3,4-d]imidazole-6-carboxylic acid] | 50 to 70
91 | 68 | CCSc1nc2c(C)sc(C(=O)OC)c2n1Cc1ccc(-c2ccccc2-c2nn[nH]n2)cc1 [compound 1] | 30 to 50
64 | 18 | CCSc1nc2c(C)sc(C(=O)O)c2n1Cc1ccc(-c2ccccc2-c2nn[nH]n2)cc1 [compound 2] | ≥ 70
89 | 59 | CCSc1nc2c(C)sc(C(=O)OCOC(=O)C(C)(C)C)c2n1Cc1ccc(-c2ccccc2-c2nn[nH]n2)cc1 [compound 5] | ≥ 70
84 | 46 | CCSc1nc2c(C)sc(C(=O)OC(C)OC(=O)OC3CCCCC3)c2n1Cc1ccc(-c2ccccc2-c2nn[nH]n2)cc1 (stereo not drawn) [compound 6] | ≥ 70
77 | 55 | COC(=O)c1sc(C)c2nc(SC)n(Cc3ccc(-c4ccccc4-c4nn[nH]n4)cc3)c12 [compound 7] | 30 to 50
65 | 19 | COc1nc2c(C)sc(C(=O)O)c2n1Cc1ccc(-c2ccccc2-c2nn[nH]n2)cc1 [compound 28] | ≥ 70
67 | 39 | CCOc1nc2c(C)sc(C(=O)O)c2n1Cc1ccc(-c2ccccc2-c2nn[nH]n2)cc1 [compound 29] | 
72 | 33 | CCCOc1nc2c(C)sc(C(=O)O)c2n1Cc1ccc(-c2ccccc2-c2nn[nH]n2)cc1 [compound 30] | 
75 | 26 | CCNc1nc2c(C)sc(C(=O)O)c2n1Cc1ccc(-c2ccccc2-c2nn[nH]n2)cc1 [compound 31] | 
92 | 73 | COc1nc2c(C)sc(C(=O)OCOC(C)=O)c2n1Cc1ccc(-c2ccccc2-c2nn[nH]n2)cc1 [compound 36] | ≥ 70
